Measured values reported in patent US11111264B2, “Morphic forms of 4-amino-7-(3,4-dihydroxy-5-(hydroxymethyl)tetrahydrofuran-2-yl)-2-methyl-7H-pyrrolo[2,3-d]pyrimidine-5-carboxamide and uses thereof” (Chimerix, Inc., priority 2017, dated 2021).

Columns and labels:
Format in all cases: physicochemical
[1] = Dynamic vapor sorption (DVS); settings: 25° C.; for crystal form after DVS (PXRD): 50% to 0% to 95% to 50% relative humidity; for hygroscopicity (from DVS): mass as a function of relative humidity
From the text: FIG. 20A is a DVS diagram of a sample of Compound 1, Form A as a function of time and the applied change in relative humidity. Line A represents the relative weight of the sample at each relative humidity. Line B represents the applied relative humidity (i.e., the applied measurement program). FIG. 20B is a DVS diagram of a sample of Compound 1, Form A as a function of the applied relative humidity. FIG. 20A and FIG. 20B were obtained using a Sorptions Prufsystem ProUmid system using a scan rate of 5% relative humidity per hour at a temperature of 25° C.
DVS measurements were performed with an SPS11-100n “Sorptions Prufsystem” of Projekt Messtechnik”, D-89077 Ulm (Germany). About 20 to 100 mg of sample were put into an aluminum sample pan. Humidity change rates of 5% per hour were used. The applied measurement program is visualized in the figures.

[2] = Thermodynamic stability: stirring a mixture of Forms A-G in solvent/water, PXRD; settings: for PXRD after stirring mixture of Forms A, B, C, D, E, F and G: four days at room temperature
From the text: A mixture of Compound 1, Forms A, B, C, D, E, F and G was stirred in DMF/water 1:1 v/v (water activity about 0.79).
A mixture of Compound 1, Forms A, B, C, D, E, F and G was stirred in methanol/water 95:5 v/v (water activity about 0.18).

[3] = Suspension equilibration of Compound 1, Form A in organic solvents
Procedure: Compound 1, Form A was stirred in methanol at room temperature for six days. […] At least 90% of Form A was still present.
Additionally, Compound 1, Form A was stirred in acetonitrile at a temperature ranging between 52° C. and 75° C. for five days.

| SMILES | crystal form after DVS (PXRD) [1] | hygroscopicity (from DVS) [1] | desorption of water (DVS) ([1]; 0% R.H., 5% relative humidity per hour) | PXRD after stirring mixture of Forms A, B, C, D, E, F and G ([2]; DMF/water 1:1 v/v (water activity about 0.79)) | relative thermodynamic stability among the seven morphic forms ([2]; conclusion from both slurry experiments) | PXRD after stirring mixture of Forms A, B, C, D, E, F and G ([2]; methanol/water 95:5 v/v (water activity about 0.18)) | resulting crystalline material (PXRD) ([3]; stirred in acetonitrile between 52° C. and 75° C. for five days) | Form A still present (PXRD) ([3]; stirred in methanol at room temperature for six days) |
| --- | --- | --- | --- | --- | --- | --- | --- | --- |
| Cc1nc(N)c2c(C(N)=O)cn([C@@H]3O[C@H](CO)[C@@H](O)[C@H]3O)c2n1 [Form B, 4-amino-7-((2R,3R,4S,5R)-3,4-dihydroxy-5-(hydroxymethyl)tetrahydrofuran-2-yl)-2-methyl-7H-pyrrolo[2,3-d]pyrimidine-5-carboxamide] | transform in to Form A | hygroscopic | – | – | – | – | – | – |
| Cc1nc(N)c2c(C(N)=O)cn([C@@H]3O[C@H](CO)[C@@H](O)[C@H]3O)c2n1 [Form D, 4-amino-7-((2R,3R,4S,5R)-3,4-dihydroxy-5-(hydroxymethyl)tetrahydrofuran-2-yl)-2-methyl-7H-pyrrolo[2,3-d]pyrimidine-5-carboxamide] | remained as Form D | hygroscopic | – | – | – | – | – | – |
| Cc1nc(N)c2c(C(N)=O)cn([C@@H]3O[C@H](CO)[C@@H](O)[C@H]3O)c2n1 [Form E, 4-amino-7-((2R,3R,4S,5R)-3,4-dihydroxy-5-(hydroxymethyl)tetrahydrofuran-2-yl)-2-methyl-7H-pyrrolo[2,3-d]pyrimidine-5-carboxamide] | transformed into Form A | hygroscopic | – | – | – | – | – | – |
| Cc1nc(N)c2c(C(N)=O)cn([C@@H]3O[C@H](CO)[C@@H](O)[C@H]3O)c2n1 [Form A, 4-amino-7-((2R,3R,4S,5R)-3,4-dihydroxy-5-(hydroxymethyl)tetrahydrofuran-2-yl)-2-methyl-7H-pyrrolo[2,3-d]pyrimidine-5-carboxamide] | same pattern as the sample before DVS | non-hygroscopic | ≤ 0.1 % m/m | only the peaks of crystal form A | most thermodynamically stable | only the peaks of crystal form A | PXRD pattern similar to Compound 1, Form D | At least 90% |
